Reference: patent publication US20240398828A1, “HETERO-ATOM CONTAINING COMPOUNDS AND USES THEREOF” (Kumquat Biosciences Inc., priority 2021, published 2024)

Experiments:
[1] = target: T1, PTPN2 (i.e., TC-PTP) (Homo sapiens, UniProt P17706); assay: Phosphatase activity assay (DiFMUP substrate), PTPN2; type: biochemical; conditions: compounds binned ≤1 uM or >1 uM
T1 sequence (P17706 1-415): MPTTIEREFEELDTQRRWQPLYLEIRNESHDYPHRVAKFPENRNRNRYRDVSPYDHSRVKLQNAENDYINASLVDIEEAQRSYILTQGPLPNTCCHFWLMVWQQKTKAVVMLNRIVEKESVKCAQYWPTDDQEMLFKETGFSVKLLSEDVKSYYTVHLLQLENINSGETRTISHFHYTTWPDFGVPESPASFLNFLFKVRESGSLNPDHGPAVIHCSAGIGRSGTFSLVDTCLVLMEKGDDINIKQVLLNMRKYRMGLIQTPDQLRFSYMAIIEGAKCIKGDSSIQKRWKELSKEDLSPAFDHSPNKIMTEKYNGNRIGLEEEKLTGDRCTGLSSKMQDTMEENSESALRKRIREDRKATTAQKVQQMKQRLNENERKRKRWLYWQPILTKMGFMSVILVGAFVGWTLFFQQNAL
How it was run: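 Enzyme (e.g. PTPN2 0.025 ng/ul) mixed about 2 min with compound at 10 serial concentrations in 50 mM HEPES pH 7.5, 150 mM NaCl, 0.5 mM EDTA, 1 mM DTT, 0.001% Tween-20 at room temperature. DiFMUP added at each enzyme's Km (about 45 μM for PTPN2). DiFMU fluorescence (ex 360/em 450 nm) followed 15-30 min; IC50 from 4-parameter fit of rates.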

[2] = target: T2, PTPN1 (i.e., PTP1B) (Homo sapiens, UniProt P18031); assay: Phosphatase activity assay (DiFMUP substrate), PTP1B; type: biochemical; conditions: compounds binned ≤1 uM or >1 uM
T2 sequence (P18031 1-435): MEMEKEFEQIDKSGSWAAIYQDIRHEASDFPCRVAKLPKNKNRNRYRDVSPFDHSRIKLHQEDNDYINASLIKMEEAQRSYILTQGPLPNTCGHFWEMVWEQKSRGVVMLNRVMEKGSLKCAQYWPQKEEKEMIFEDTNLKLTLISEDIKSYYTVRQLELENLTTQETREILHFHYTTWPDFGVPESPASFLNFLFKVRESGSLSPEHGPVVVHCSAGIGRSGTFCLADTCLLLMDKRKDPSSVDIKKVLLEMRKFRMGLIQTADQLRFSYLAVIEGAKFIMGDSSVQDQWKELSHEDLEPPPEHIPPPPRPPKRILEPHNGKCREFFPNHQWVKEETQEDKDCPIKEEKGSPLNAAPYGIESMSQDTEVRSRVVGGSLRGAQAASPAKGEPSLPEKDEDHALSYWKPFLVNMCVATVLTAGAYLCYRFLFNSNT
How it was run: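 Read-out is continuous fluorescence of DiFMU (360 nm excitation, 450 nm emission) over about 15-30 minutes, with DiFMUP substrate at the enzyme's independently determined Km (PTPN2 approx. 45 μM final). Buffer: 50 mM HEPES pH 7.5, 150 mM NaCl, 0.5 mM EDTA, 1 mM DTT, 0.001% Tween-20, room temperature; initial rates versus 10-point dilution fitted for IC50, at least duplicate.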

SMILES | IC50 [1] | IC50 [2]
O=C1CN(c2c(O)ccc(-c3ccc4ocnc4c3)c2F)S(=O)(=O)N1 [Compound 170, 5-(3-(benzo[d]oxazol-5-yl)-2-fluoro-6-hydroxyphenyl)-1,2,5-thiadiazolidin-3-one 1,1-dioxide] | ≤ 1000 nM | ≤ 1000 nM
O=C1CN(c2c(O)ccc(-c3cnn(CC4CCOCC4)c3)c2F)S(=O)(=O)N1 [Compound 171, 5-(2-fluoro-6-hydroxy-3-(1-((tetrahydro-2H-pyran-4-yl)methyl)-1H-pyrazol-4-yl)phenyl)-1,2,5-thiadiazolidin-3-one 1,1-dioxide] | ≤ 1000 nM | ≤ 1000 nM
COc1ccc(Cn2cc(-c3ccc(O)c(N4CC(=O)NS4(=O)=O)c3F)cn2)cc1 [Compound 172, 5-(2-fluoro-6-hydroxy-3-(1-(4-methoxybenzyl)-1H-pyrazol-4-yl)phenyl)-1,2,5-thiadiazolidin-3-one 1,1-dioxide] | ≤ 1000 nM | ≤ 1000 nM
O=C1CN(c2c(O)ccc(-c3coc(-c4ccccc4)n3)c2F)S(=O)(=O)N1 [Compound 173, 5-(2-fluoro-6-hydroxy-3-(2-phenyloxazol-4-yl)phenyl)-1,2,5-thiadiazolidin-3-one 1,1-dioxide] | ≤ 1000 nM | ≤ 1000 nM
O=C1CN(c2c(O)ccc(-c3cnn(Cc4ccncc4)c3)c2F)S(=O)(=O)N1 [Compound 174, 5-(2-fluoro-6-hydroxy-3-(1-(pyridin-4-ylmethyl)-1H-pyrazol-4-yl)phenyl)-1,2,5-thiadiazolidin-3-one 1,1-dioxide] | ≤ 1000 nM | ≤ 1000 nM
CC(C)CCn1cc(-c2ccc(O)c(N3CC(=O)NS3(=O)=O)c2Cl)cn1 [Compound 175, 5-(2-chloro-6-hydroxy-3-(1-isopentyl-1H-pyrazol-4-yl)phenyl)-1,2,5-thiadiazolidin-3-one 1,1-dioxide] | ≤ 1000 nM | ≤ 1000 nM
O=C1CN(c2c(O)ccc(-c3cn(C4CC4)cn3)c2F)S(=O)(=O)N1 [Compound 176, 5-(3-(1-cyclopropyl-1H-imidazol-4-yl)-2-fluoro-6-hydroxyphenyl)-1,2,5-thiadiazolidin-3-one 1,1-dioxide] | ≤ 1000 nM | ≤ 1000 nM
O=C1CN(c2c(O)ccc(-c3ccc(N4CCCC4)nc3)c2F)S(=O)(=O)N1 [Compound 177, 5-(2-fluoro-6-hydroxy-3-(6-(pyrrolidin-1-yl)pyridin-3-yl)phenyl)-1,2,5-thiadiazolidin-3-one 1,1-dioxide] | ≤ 1000 nM | ≤ 1000 nM
Cn1ncc(-c2ccc(O)c(N3CC(=O)NS3(=O)=O)c2F)n1 [Compound 178, 5-(2-fluoro-6-hydroxy-3-(2-methyl-2H-1,2,3-triazol-4-yl)phenyl)-1,2,5-thiadiazolidin-3-one 1,1-dioxide] | ≤ 1000 nM | ≤ 1000 nM
O=C1CN(c2c(O)ccc(-c3cnn(CC4CCCCC4)c3)c2F)S(=O)(=O)N1 [Compound 179, 5-(3-(1-(cyclohexylmethyl)-1H-pyrazol-4-yl)-2-fluoro-6-hydroxyphenyl)-1,2,5-thiadiazolidin-3-one 1,1-dioxide] | ≤ 1000 nM | ≤ 1000 nM
Cc1ccc(-c2ccc(O)c(N3CC(=O)NS3(=O)=O)c2F)cn1 [Compound 180, 5-(2-fluoro-6-hydroxy-3-(6-methylpyridin-3-yl)phenyl)-1,2,5-thiadiazolidin-3-one 1,1-dioxide] | ≤ 1000 nM | ≤ 1000 nM
O=C1CN(c2c(O)ccc(-c3cn(-c4cccc(F)c4)cn3)c2F)S(=O)(=O)N1 [Compound 181, 5-(2-fluoro-3-(1-(3-fluorophenyl)-1H-imidazol-4-yl)-6-hydroxyphenyl)-1,2,5-thiadiazolidin-3-one 1,1-dioxide] | ≤ 1000 nM | ≤ 1000 nM
Cc1cc(-c2ccc(O)c(N3CC(=O)NS3(=O)=O)c2F)on1 [Compound 182, 5-(2-fluoro-6-hydroxy-3-(3-methylisoxazol-5-yl)phenyl)-1,2,5-thiadiazolidin-3-one 1,1-dioxide] | ≤ 1000 nM | ≤ 1000 nM
Cc1cc(-c2ccc(O)c(N3CC(=O)NS3(=O)=O)c2F)[nH]n1 [Compound 183, 5-(2-fluoro-6-hydroxy-3-(3-methyl-1H-pyrazol-5-yl)phenyl)-1,2,5-thiadiazolidin-3-one 1,1-dioxide] | ≤ 1000 nM | ≤ 1000 nM
CC(C)CCn1cc(-c2cc(O)cc(N3CC(=O)NS3(=O)=O)c2)cn1 [Compound 184, 5-(3-hydroxy-5-(1-isopentyl-1H-pyrazol-4-yl)phenyl)-1,2,5-thiadiazolidin-3-one 1,1-dioxide] | > 1000 nM | > 1000 nM
Cn1ccc(-c2ccc(O)c(N3CC(=O)NS3(=O)=O)c2F)c1 [Compound 185, 5-(2-fluoro-6-hydroxy-3-(1-methyl-1H-pyrrol-3-yl)phenyl)-1,2,5-thiadiazolidin-3-one 1,1-dioxide] | ≤ 1000 nM | ≤ 1000 nM
O=C1CN(c2c(O)ccc(-c3cnn(Cc4ccc(F)cc4)c3)c2F)S(=O)(=O)N1 [Compound 186, 5-(2-fluoro-3-(1-(4-fluorobenzyl)-1H-pyrazol-4-yl)-6-hydroxyphenyl)-1,2,5-thiadiazolidin-3-one 1,1-dioxide] | ≤ 1000 nM | ≤ 1000 nM
O=C1CN(c2c(O)ccc(-c3cnn(Cc4cccnc4)c3)c2F)S(=O)(=O)N1 [Compound 187, 5-(2-fluoro-6-hydroxy-3-(1-(pyridin-3-ylmethyl)-1H-pyrazol-4-yl)phenyl)-1,2,5-thiadiazolidin-3-one 1,1-dioxide] | ≤ 1000 nM | ≤ 1000 nM
O=C1CN(c2c(O)ccc(-c3cnn(Cc4ccc(Cl)cc4)c3)c2F)S(=O)(=O)N1 [Compound 189, 5-(3-(1-(4-chlorobenzyl)-1H-pyrazol-4-yl)-2-fluoro-6-hydroxyphenyl)-1,2,5-thiadiazolidin-3-one 1,1-dioxide] | ≤ 1000 nM | ≤ 1000 nM
O=C1CN(c2c(O)ccc(-c3cn(-c4ccccc4)cn3)c2F)S(=O)(=O)N1 [Compound 190, 5-(2-fluoro-6-hydroxy-3-(1-phenyl-1H-imidazol-4-yl)phenyl)-1,2,5-thiadiazolidin-3-one 1,1-dioxide] | ≤ 1000 nM | ≤ 1000 nM
Nc1nc2ccc(-c3ccc(O)c(N4CC(=O)NS4(=O)=O)c3F)cc2o1 [Compound 191, 5-(3-(2-aminobenzo[d]oxazol-6-yl)-2-fluoro-6-hydroxyphenyl)-1,2,5-thiadiazolidin-3-one 1,1-dioxide] | ≤ 1000 nM | ≤ 1000 nM
Cn1cc(-c2ccc(O)c(N3CC(=O)NS3(=O)=O)c2F)c(C(F)(F)F)n1 [Compound 192, 5-(2-fluoro-6-hydroxy-3-(1-methyl-3-(trifluoromethyl)-1H-pyrazol-4-yl)phenyl)-1,2,5-thiadiazolidin-3-one 1,1-dioxide] | > 1000 nM | ≤ 1000 nM
CC(C)CNc1ccc(-c2ccc(O)c(N3CC(=O)NS3(=O)=O)c2F)cc1 [Compound 193, 5-(2-fluoro-4-hydroxy-4′-(isobutylamino)-[1,1′-biphenyl]-3-yl)-1,2,5-thiadiazolidin-3-one 1,1-dioxide] | ≤ 1000 nM | ≤ 1000 nM
O=C1CN(c2c(O)ccc(-c3cnn(C4CCC4)c3)c2F)S(=O)(=O)N1 [Compound 194, 5-(3-(1-cyclobutyl-1H-pyrazol-4-yl)-2-fluoro-6-hydroxyphenyl)-1,2,5-thiadiazolidin-3-one 1,1-dioxide] | ≤ 1000 nM | ≤ 1000 nM
O=C1CN(c2c(O)ccc(-c3cnn4ccccc34)c2F)S(=O)(=O)N1 [Compound 195, 5-(2-fluoro-6-hydroxy-3-(pyrazolo[1,5-a]pyridin-3-yl)phenyl)-1,2,5-thiadiazolidin-3-one 1,1-dioxide] | ≤ 1000 nM | ≤ 1000 nM
CC(C)CCn1ccc(-c2ccc(O)c(N3CC(=O)NS3(=O)=O)c2F)n1 [Compound 196, 5-(2-fluoro-6-hydroxy-3-(1-isopentyl-1H-pyrazol-3-yl)phenyl)-1,2,5-thiadiazolidin-3-one 1,1-dioxide] | ≤ 1000 nM | ≤ 1000 nM
O=C1CN(c2c(O)ccc(-c3cnn(Cc4cncnc4)c3)c2F)S(=O)(=O)N1 [Compound 197, 5-(2-fluoro-6-hydroxy-3-(1-(pyrimidin-5-ylmethyl)-1H-pyrazol-4-yl)phenyl)-1,2,5-thiadiazolidin-3-one 1,1-dioxide] | ≤ 1000 nM | ≤ 1000 nM
CC(C)CCN1CCCC(c2ccc(O)c(N3CC(=O)NS3(=O)=O)c2F)C1 (centres unmarked) [Compound 198, 5-(2-fluoro-6-hydroxy-3-(1-isopentylpiperidin-3-yl)phenyl)-1,2,5-thiadiazolidin-3-one 1,1-dioxide] | > 1000 nM | ≤ 1000 nM
